The values that follow are results of earlier work, collected in US5041644A, “Peptide derivatives of β-chloro-L(Z)-dehydro-glutamic acid” (Merck & Co., Inc., priority 1987, dated 1991).

The test system of data set [1] is D-Alanyl-D-Alanine ligase (synthetase). The conditions noted are these: at both the donor and acceptor sites; most potent ligase inhibitor described heretofore.
The test system of another data set is Micrococcus luteus. The conditions noted are these: very narrow antibacterial spectrum; activity practically limited only to Micrococcus luteus.

`N[C@@H]1CONC1=O` [D-Cycloserine]: the “inhibition of the ligase” value in data set [1] is recorded as “reversible inhibitor”.
As to `N[C@@H](C(=O)O)/C(Cl)=C/C(=O)O` [β-chloro-L-(Z)-dehydroglutamic acid], in the data set with Micrococcus luteus, the antibacterial activity result is “shows an antibacterial activity”.
